{
  "source": "patent US10980775B2",
  "about": "“Composition for prevention or treatment of cutaneous disorder” (XANTIAL, priority 2015, dated 2021)",
  "key": {"[1]": {"test_system": "collagen I expression in NHDF", "assay": "Collagen I expression in NHDF stimulated with vitamin C+TGF-beta, in situ immunolabeling", "assay_type": "cell-based, human", "conditions": "50 μg/ml, 72 hours", "description": "Analysis of collagen I expression in NHDF stimulated with vitamin C+TGF-beta by in situ immunolabeling. Activated HMVEC release TGF-beta which stimulates extracellular matrix synthesis by NHDF. TGF-beta stimulates the synthesis of collagen and vitamin C its release, creating experimental conditions close to TSC pathology conditions.\nNormal Human Dermal Fibroblasts (NHDF) • Cell type: NHDF, used at the 8th passage • Culture conditions: 37° C., 5% CO2 • Culture medium: DMEM supplemented with L-glutamine 2 mM, Penicillin 50 U/ml—Streptomycin 50 μg/ml Fetal calf serum (FCS) 10% • Assay medium: DMEM supplemented with L-glutamine 2 mM, Penicillin 50 U/ml, Streptomycin 50 μg/ml FCS 1%. Culture and Treatment\nThe fibroblasts were seeded in 96-well plates and cultured in culture medium for 24 hours. The medium was then replaced with assay medium containing or not (control) the test compounds or associations in presence or not (non-stimulated control) of the association vitamin C+TGF-beta (20 μg/ml+10 ng/ml). The cells were incubated for 72 hours. All experimental conditions were performed in n=3.\nAfter incubation, culture media were discarded and the cells were rinsed, fixed and permeabilized.\nThe acquisition of the images (5 photos per well) was performed using INCell Analyzer™ 1000 (GE Healthcare). Representative images for each experimental condition were included in the report.\nThe labeling was quantified by the measurement of the fluorescence intensity normalized to the total number of cells (Integration of numerical data with the Developer Toolbox 1.5, GE Healthcare software)."}, "HMVEC/NHDF co-culture": {"test_system": "HMVEC/NHDF co-culture", "assay": "Pseudotube formation (branching points) in VEGF-stimulated HMVEC/NHDF co-culture, in situ immunolabeling", "assay_type": "cell-based, human", "conditions": "VEGF 100 ng/ml, 10 days; for Number of branching points, Mean: n=3; for Number of branching points: single replicate", "description": "Analysis of pseudotube formation in a HMVEC/NHDF co-culture by in situ immunolabeling.\nHuman Microvascular Endothelial Cells (HMVEC) • Cell type: HMVEC, used at the 7th passage\nHMVEC/NHDF Co-Culture • Cell type: HMVEC+NHDF (50:50 ratio) • Culture conditions: 37° C., 5% CO2 • Co-culture medium: Endothelial Cell Basal Medium 2 (EBM-2) supplemented with Fetal calf serum (FCS) 5%, rhEGF, rhFGF, R3 IGF-1, hydrocortisone, vitamin C and gentamycin +\nDMEM supplemented with L-glutamine 2 mM, Penicillin 50 U/ml, Streptomycin 50 μg/ml FCS 10%.\nThe HMVEC and NHDF were seeded in 96-well plates and co-cultured in co-culture medium for 24 hours. The medium was then removed and replaced by co-culture medium containing or not (control) the test compounds, associations or the reference, suramine at 5 μM, in presence or not (non-stimulated control) of the inducer, VEGF at 100 ng/ml. The cells were incubated for 10 days with treatment renewal after 72 hours of incubation. All experimental conditions were performed in n=3.\nAfter incubation, culture media were discarded and the cells were rinsed, fixed and permeabilized. The cells were then labeled using a primary antibody anti-Von Willebrand Factor.\nThe formation of pseudotubes was observed using a NIKON Diaphot 300 microscope (lens×4). The images were captured (1 photo per well) using a NIKON DS-Fi1 camera and NIS-Elements 3.10 software. Then the number of branching points within the pseudotube network was counted on each image."}},
  "note": "Several values for one entry are separate records, joined by “and”; a condition that tells them apart may be missing. Equal entries are not always repeated.",
  "data": [
    {"smiles": "COc1cc2c(cc1O)CCC(C)(C)O2", "note": "[Dimethylmethoxy chromanol]", "values": [
      {"measurement": "Collagen I, Mean (basic data)", "setting": "[1]; NHDF + vitamin C+TGF-beta (20 μg/ml+10 ng/ml), n=3", "result": 274529},
      {"measurement": "Collagen I branching points (basic data)", "setting": "[1]; NHDF + vitamin C+TGF-beta (20 μg/ml+10 ng/ml), single replicate", "result": "250891 and 283414 and 289284"},
      {"measurement": "% Stimulated control (collagen I)", "setting": "[1]; NHDF + vitamin C+TGF-beta", "result": 73, "unit": "%"},
      {"measurement": "% inhibition (collagen I expression)", "setting": "[1]; NHDF + vitamin C+TGF-beta", "result": 71, "unit": "%"},
      {"measurement": "% stimulated control (branching points)", "setting": "HMVEC/NHDF co-culture; 6 μg/ml", "result": 79, "unit": "%"},
      {"measurement": "Number of branching points, Mean", "setting": "HMVEC/NHDF co-culture; 6 μg/ml", "result": 98},
      {"measurement": "Number of branching points", "setting": "HMVEC/NHDF co-culture; 6 μg/ml", "result": "83 and 104 and 109"},
      {"measurement": "inhibition at 6 µg/mL", "setting": "HMVEC/NHDF co-culture; Homo sapiens, 240 h, 6 μg/ml", "result": 21, "unit": "%"}
    ]},
    {"smiles": "Oc1ccc(/C=C/c2cc(O)cc(O)c2)cc1", "note": "[Resveratrol, 3,5,4′-trihydroxy-trans-stilbene]", "values": [
      {"measurement": "% stimulated control (branching points)", "setting": "HMVEC/NHDF co-culture; 2 μg/ml", "result": 113, "unit": "%"},
      {"measurement": "Number of branching points, Mean", "setting": "HMVEC/NHDF co-culture; 2 μg/ml", "result": 141},
      {"measurement": "Number of branching points", "setting": "HMVEC/NHDF co-culture; 2 μg/ml", "result": "139 and 157 and 126"},
      {"measurement": "inhibition at 2 µg/mL", "setting": "HMVEC/NHDF co-culture; Homo sapiens, 240 h, 2 μg/ml", "result": -13, "unit": "%"}
    ]},
    {"smiles": "Cc1ccc(C(=O)Nc2ccc(S(=O)(=O)O)c3cc(S(=O)(=O)O)cc(S(=O)(=O)O)c23)cc1NC(=O)c1cccc(NC(=O)Nc2cccc(C(=O)Nc3cc(C(=O)Nc4ccc(S(=O)(=O)O)c5cc(S(=O)(=O)O)cc(S(=O)(=O)O)c45)ccc3C)c2)c1", "note": "[Suramine, reference compound]", "values": [
      {"measurement": "% stimulated control (branching points)", "setting": "HMVEC/NHDF co-culture; 5 μM", "result": 63, "unit": "%"},
      {"measurement": "Number of branching points, Mean", "setting": "HMVEC/NHDF co-culture; 5 μM", "result": 78},
      {"measurement": "Number of branching points", "setting": "HMVEC/NHDF co-culture; 5 μM", "result": "72 and 85 and 79"},
      {"measurement": "inhibition at 5 µM", "setting": "HMVEC/NHDF co-culture; Homo sapiens, 240 h, 5 μM", "result": 37, "unit": "%"}
    ]}
  ]
}
